Test results published in US20250376698A1, “COMPOSITIONS AND METHODS FOR PROMOTING LIVER REGENERATION BY GENE EDITING IN METABOLIC LIVER DISEASE” (priority 2022, published 2025).
Read-outs that look alike come from different tables or passages of the source.

Key:
[1] = Description: Vector genomes in liver were quantified with qPCR. Briefly, AAV vector genome copy number was measured by quantitative real-time PCR with liver genomic DNA and normalized to β-actin. Plasmid DNA corresponding to 0.01 to 100 copies of canine G6Pase gene (in 500 ng genomic DNA) was used in a standard curve. qPCR was performed on a Lightcycler 480 (Roche Diagnostics, Basel, Switzerland) using SYBR Green mix (Thermo-Fisher Scientific, Waltham, MA) and the following primers: cG6Pc Fwd (5′-[…]-3′, SEQ ID NO: 65), cG6Pc Rev (5′-[…]-3′, SEQ ID NO: 66), hG6PC Fwd (5′-[…]-3′, SEQ ID NO: 67), hG6PC Rev (5′-[…]-3′, SEQ ID NO: 68), saCas9 Fwd (5′-[…]-3′, SEQ ID NO: 69), saCas9 Rev (5′-[…]-3′, SEQ ID NO: 70), cB-actin Fwd (5′-[…]-3′, SEQ ID NO: 71), cB-actin Rev (5′-[…]-3′, SEQ ID NO: 72). Cycling conditions were 95° C. for 5 min, followed by 45 cycles of 95° C. for 10 s, 60° C. for 10 s, and 72° C. for 20 s followed by acquisition.
G6Pase activity in liver = test: Liver G6Pase activity in GSD Ia dogs; format: in vivo, dog; settings: 32 months of age, before CRISPR (BC), after gene replacement as neonates
Description: G6Pase activity and glycogen levels were analyzed at 4- and 16-months following genome editing at 34 months of age as described in (Koeberl, D. et al., (2006). Early, sustained efficacy of adeno-associated virus vector-mediated gene therapy in glycogen storage disease type Ia. Gene Therapy. 13, 1281-1289). Both assays reflected corrections of the biochemical abnormalities in comparison with untreated affected controls. Normal activity was measured in a group of three unaffected dogs (two carriers and one wildtype; both genotypes are accepted as normal controls in published studies of animals with GSD Ia). Briefly, liver biopsy tissues, obtained as described in Example 2, were flash-frozen and stored at −70° C. Glycogen content was measured by complete digestion of polysaccharide using amyloglucosidase (Sigma Chemical Co., St. Louis, MO). The structure of the polysaccharide was inferred by using phosphorylase free of the debranching enzyme to measure the yield of glucose-1-phosphate. Specific G6Pase activity was measured by using glucose-6-phosphate as substrate after subtraction of nonspecific phosphatase activity as estimated by β-glycerophosphate.

GSD Ia puppies = test: Clinical course (hypoglycemia, survival) of GSD Ia puppies treated as neonates; format: in vivo, dog
From the text: In this example, puppies with GSD Ia were initially treated with AAV-CRISPR/Cas9 and AAV-cG6PC (Donor) to perform neonatal genome editing at 2 days of age, followed by gene replacement therapy with one or more alternative serotypes of AAV to control symptoms of GSD Ia at the indicated ages for the individual puppies (Puppy 1 shown in green, Puppy 2 in purple in FIG. 4A, see Table 3 below for details). The control group of dogs were those described in Example 2 that received 3 doses of gene replacement therapy during infancy.
As shown in FIG. 4A and described in Table 3 below, two puppies with GSD Ia were treated with genome editing as neonates at a 5:1 ratio of AAV7-cG6PC and AAV7-SaCas9. One puppy was dosed at 4×10^13 vp/kg AAV7-cG6PC and 8×10^12 vp/kg AAV7-SaCas9. The other was dosed with 5×10^13 vp/kg AAV7-cG6PC and […] AAV7-SaCas9. […] Specifically, one puppy (the first described above) received two doses of gene replacement therapy (e.g., AAV10 G6Pase at 3×10^12 vp/kg and AAV8 G6Pase at 1×10^13 vp/kg) at ages 2 and 3 months, respectively. The second puppy received only one gene replacement therapy at 2 months of age (e.g., AAV9 G6Pase at 3×10^13 vp/kg). Table 3 below details the treatment protocols used for both puppies.

canine G6PC locus = test: Nested integration PCR in transfected GSD Ia dog fibroblasts; format: cell-based
Description: Next, a nested PCR reaction was performed to detect levels of DNA integration in genomic DNA in the transfected fibroblasts. Fibroblast DNA were extracted using the Wizard Genomic DNA Purification Kit (Promega, Madison, WI, USA). The canine G6Pc locus was amplified by Q5 Taq Polymerase (NEB, Ipswich, MA, USA) with the following reagents: 5 μL of Q5 buffer, 5 μL of high GC enhancer solution, 2 μL of 2.5 mM dNTP mix, 1.25 μL of 10 uM primer P1 (5′-[…]-3′, SEQ ID NO: 59)), 1.25 μL of 10 uM primer P4 (5′-[…]-3′, SEQ ID NO: 62)), 9.25 μL of water, 1 μL (100 ng) of genomic DNA, and 0.25 μL of Q5 Taq Polymerase. Cycling conditions were 35 cycles of denaturation at 95° C. for 30 s, annealing at 59° C. for 30 s, extension at 72° C. for 2 min, followed by incubation at 4° C. One microliter of first-round PCR products was used in a nested reaction with the same conditions except primers were P2 (5′-[…]-3′ (SEQ ID NO: 60)) and P3 (5′-[…]-3′ (SEQ ID NO: 61)) and cycling was 30 cycles. Control primers were P5 (5′-[…]-3′ (SEQ ID NO: 63)) and P6 (5′-[…]-3′ (SEQ ID NO: 64)).
Sequencing of the integration PCR product (total sequence: SEQ ID NO: 52) confirmed the donor sequence was inserted in the dog G6PC gene at the exon 1/intron 1 boundary. […]

[2] = dogs treated as adults, months 4 and 16 after gene editing vectors
[3] = puppies treated as neonates, Months 4 and 16

Substance	vector copy number in liver ([1]; dogs treated as adults, 4 months following gene editing (4M)) [vg/nucleus]	vector genomes in liver (qPCR) [1, 2]	vector genomes in liver (qPCR) [1, 3]	G6Pase activity in liver (G6Pase activity in liver)	effect of gene replacement vector on recurrent hypoglycemia (GSD Ia puppies; puppies, given at 2 (and 3) months)	transgene integration (integration PCR) (canine G6PC locus)	vector copy number in liver, compared with AAV-G6Pase ([1]; dogs treated as adults, 4 months following gene editing)	hypoglycemia and survival in the first two months of life (GSD Ia puppies; GSD Ia puppies treated at 2 days of age)
AAV-G6Pase: gene replacement AAV vector delivering human G6Pase cDNA under a human G6Pase minimal promoter, episomal expression (SEQ ID NO: 49; Luo et al. 2011) [reference compound]	< 0.1	detected	detected	29±8 % of normal	reversed their symptoms			
AAV-cG6PC: AAV donor vector: canine G6Pc cDNA flanked by canine G6PC 5' and 3' homology arms (SEQ ID NO: 43)		detected	detected			no detectable integration events	Higher copy numbers	efficacious in preventing hypoglycemia and improving survival
